Structures are written as SMILES.

What is called inhibition is the share of the control response that was lost under treatment.

The test system of one experiment is RSV strain A2. Nature of the experiment: RSV antiviral cytoprotection assay in Hep2 cells (RSV-induced cytopathic effect, Cell TiterGlo). The experiment is classed as cell-based, Respiratory Syncytial Virus (RSV). As to conditions: 0.5 μM compound; RSV A2-infected Hep2 cells; % inhibition calculated from 4-parameter dose response curve, normalized to 0% and 100%; 0.5 µM. The gist of the method: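 Hep2 cells were infected with RSV A2 and exposed to 3-fold compound dilutions, either 3,000 cells/well for 4 days (96-well) or 2000 cells/well at MOI 1:1000 for 5 days at 37° C. (384-well). Cytopathic effect was read by Cell TiterGlo luminescence, and EC50 or normalized % inhibition came from curve fits against infected and uninfected controls.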
As for `Cc1cccnc1C(=O)N1CCCC[C@H]1c1cc2nc(N3C[C@@H](C#N)[C@@H](O)C3)c(C)cn2n1` [Compound 179], the “Percent inhibition at 0.5 μM” value is given as 93%.

The same experiment, now with this note: human respiratory syncytial virus, HEp-2, 0.5 μM compound; RSV A2-infected Hep2 cells; % inhibition calculated from 4-parameter dose response curve, normalized to 0% and 100%; read-out: Percent inhibition at 0.5 μM.
As for `Cc1cn2nc([C@@H]3CCCCN3C(=O)c3ccccc3Cl)cc2nc1N1C[C@@H](C#N)[C@@H](O)C1` [Compound 146], the inhibition at 0.5 µM was 100%.

For the compound `Cc1cn2nc([C@@H]3CCCCN3C(=O)c3cccc(C(F)(F)F)n3)cc2nc1N1C[C@@H](C#N)[C@@H](O)C1` [Compound 148], the inhibition at 0.5 µM is 77%.

In the case of `Cc1cn2nc([C@@H]3CCCCN3C(=O)c3ccc(F)c(F)c3C)cc2nc1N1C[C@@H](C#N)[C@@H](O)C1` [Compound 149], the inhibition at 0.5 µM is 100%.

For `Cc1cn2nc([C@@H]3CCCCN3C(=O)c3ccc(F)cc3F)cc2nc1N1C[C@@H](C#N)[C@@H](O)C1` [Compound 150], the inhibition at 0.5 µM is 99%.

`Cc1cn2nc([C@@H]3CCCCN3C(=O)c3cccc4cc[nH]c34)cc2nc1N1C[C@@H](C#N)[C@@H](O)C1` [Compound 151]: the inhibition at 0.5 µM was 100%.

`Cc1cn2nc([C@@H]3CCCCN3C(=O)c3nc(Cl)ccc3Cl)cc2nc1N1C[C@@H](C#N)[C@@H](O)C1` [Compound 152]: the inhibition at 0.5 µM is 100%.

Take `Cc1cc(F)c(F)cc1C(=O)N1CCCC[C@H]1c1cc2nc(N3C[C@@H](C#N)[C@@H](O)C3)c(C)cn2n1` [Compound 153]: the inhibition at 0.5 µM was 100%.

Regarding `Cc1cn2nc([C@@H]3CCCCN3C(=O)c3ncccc3Br)cc2nc1N1C[C@@H](C#N)[C@@H](O)C1` [Compound 154], the inhibition at 0.5 µM was 90%.

In the case of `Cc1cc(F)ccc1C(=O)N1CCCC[C@H]1c1cc2nc(N3C[C@@H](C#N)[C@@H](O)C3)c(C)cn2n1` [Compound 155], the inhibition at 0.5 µM is 100%.

On to `Cc1ccc(F)cc1C(=O)N1CCCC[C@H]1c1cc2nc(N3C[C@@H](C#N)[C@@H](O)C3)c(C)cn2n1` [Compound 156], for which the inhibition at 0.5 µM was 100%.

Turning to `Cc1cn2nc([C@@H]3CCCCN3C(=O)c3c(F)cccc3F)cc2nc1N1C[C@@H](C#N)[C@@H](O)C1` [Compound 157], the inhibition at 0.5 µM was 98%.

For `Cc1cccnc1C(=O)N1CCCC[C@H]1c1cc2nc(N3C[C@@H](C#N)[C@@H](O)C3)c(C)cn2n1` [Compound 159], the inhibition at 0.5 µM was 91%.

In the case of `Cc1cn2nc([C@@H]3CCCCN3C(=O)c3cccc(F)n3)cc2nc1N1C[C@@H](C#N)[C@@H](O)C1` [Compound 160], the inhibition at 0.5 µM is 71%.

Regarding `Cc1cn2nc([C@@H]3CCCCN3C(=O)c3cc(I)ccn3)cc2nc1N1C[C@@H](C#N)[C@@H](O)C1` [Compound 161], the inhibition at 0.5 µM was 61%.

As to `Cc1cn2nc([C@@H]3CCCCN3C(=O)c3cccc4c3CCCC4)cc2nc1N1C[C@@H](C#N)[C@@H](O)C1` [Compound 162], the inhibition at 0.5 µM was 100%.

On to `Cc1cn2nc([C@@H]3CCCCN3C(=O)c3nccc4ccccc34)cc2nc1N1C[C@@H](C#N)[C@@H](O)C1` [Compound 163], for which the inhibition at 0.5 µM is 100%.

For `COc1cccc(C(=O)N2CCCC[C@H]2c2cc3nc(N4C[C@@H](C#N)[C@@H](O)C4)c(C)cn3n2)c1C` [Compound 165], the inhibition at 0.5 µM is 92%.

In the case of `COc1cc(C)c(C(=O)N2CCCC[C@H]2c2cc3nc(N4C[C@@H](C#N)[C@@H](O)C4)c(C)cn3n2)cc1C` [Compound 167], the inhibition at 0.5 µM is 100%.

As for `Cc1cn2nc([C@@H]3CCCCN3C(=O)c3cc(C(F)(F)F)ccn3)cc2nc1N1C[C@@H](C#N)[C@@H](O)C1` [Compound 168], the inhibition at 0.5 µM was 44%.

Take `Cc1cn2nc([C@@H]3CCCCN3C(=O)c3cccc(C)c3C)cc2nc1N1C[C@@H](C#N)[C@@H](O)C1` [Compound 169]: the inhibition at 0.5 µM was 100%.

For `Cc1ccc(Cl)c(C(=O)N2CCCC[C@H]2c2cc3nc(N4C[C@@H](C#N)[C@@H](O)C4)c(C)cn3n2)c1` [Compound 170], the inhibition at 0.5 µM was 100%.

Take `Cc1ccc(Br)c(C(=O)N2CCCC[C@H]2c2cc3nc(N4C[C@@H](C#N)[C@@H](O)C4)c(C)cn3n2)c1` [Compound 171]: the inhibition at 0.5 µM is 100%.

Turning to `Cc1cn2nc([C@@H]3CCCCN3C(=O)c3cccc(F)c3C)cc2nc1N1C[C@@H](C#N)[C@@H](O)C1` [Compound 172], the inhibition at 0.5 µM was 100%.

Regarding `COc1cc(C)ccc1C(=O)N1CCCC[C@H]1c1cc2nc(N3C[C@@H](C#N)[C@@H](O)C3)c(C)cn2n1` [Compound 173], the inhibition at 0.5 µM is 98%.

As for `COc1cc2ccccc2cc1C(=O)N1CCCC[C@H]1c1cc2nc(N3C[C@@H](C#N)[C@@H](O)C3)c(C)cn2n1` [Compound 174], the inhibition at 0.5 µM is 58%.

As for `Cc1cn2nc([C@@H]3CCCCN3C(=O)c3cccc4n[nH]cc34)cc2nc1N1C[C@@H](C#N)[C@@H](O)C1` [Compound 175], the inhibition at 0.5 µM was 91%.

Take `Cc1cccc(C(=O)N2CCCC[C@H]2c2cc3nc(N4C[C@@H](C#N)[C@@H](O)C4)c(C)cn3n2)n1` [Compound 176]: the inhibition at 0.5 µM is 97%.

As to `Cc1cn2nc([C@@H]3CCCCN3C(=O)c3ccc(Cl)c(Cl)c3)cc2nc1N1C[C@@H](C#N)[C@@H](O)C1` [Compound 177], the inhibition at 0.5 µM was 99%.

`COc1ccsc1C(=O)N1CCCC[C@H]1c1cc2nc(N3C[C@@H](C#N)[C@@H](O)C3)c(C)cn2n1` [Compound 178]: the inhibition at 0.5 µM was 100%.

For `Cc1cn2nc([C@@H]3CCCCN3C(=O)c3ccccc3-c3ccccc3)cc2nc1N1C[C@@H](C#N)[C@@H](O)C1` [Compound 180], the inhibition at 0.5 µM was 94%.

`Cc1cn2nc([C@@H]3CCCCN3C(=O)c3ccsc3)cc2nc1N1C[C@@H](C#N)[C@@H](O)C1` [Compound 181]: the inhibition at 0.5 µM is 83%.

In the case of `Cc1cn2nc([C@@H]3CCCCN3C(=O)c3c(Cl)c(C)nn3C)cc2nc1N1C[C@@H](C#N)[C@@H](O)C1` [Compound 182], the inhibition at 0.5 µM was 93%.

For `Cc1cn2nc([C@@H]3CCCCN3C(=O)c3csc4c3CCCC4)cc2nc1N1C[C@@H](C#N)[C@@H](O)C1` [Compound 183], the inhibition at 0.5 µM was 100%.

Turning to `Cc1cn2nc([C@@H]3CCCCN3C(=O)c3ccccc3C(F)(F)F)cc2nc1N1C[C@@H](C#N)[C@@H](O)C1` [Compound 184], the inhibition at 0.5 µM is 100%.

Turning to `Cc1cn2nc([C@@H]3CCCCN3C(=O)c3cccc4c3ccn4C)cc2nc1N1C[C@@H](C#N)[C@@H](O)C1` [Compound 185], the inhibition at 0.5 µM is 100%.

As to `Cc1cn2nc([C@@H]3CCCCN3C(=O)c3cc(F)ccc3Cl)cc2nc1N1C[C@@H](C#N)[C@@H](O)C1` [Compound 186], the inhibition at 0.5 µM was 100%.

Turning to `Cc1cn2nc([C@@H]3CCCCN3C(=O)c3nn(C)c4ccccc34)cc2nc1N1C[C@@H](C#N)[C@@H](O)C1` [Compound 187], the inhibition at 0.5 µM was 100%.

As for `COc1ccc(Cl)c(C(=O)N2CCCC[C@H]2c2cc3nc(N4C[C@@H](C#N)[C@@H](O)C4)c(C)cn3n2)c1` [Compound 188], the inhibition at 0.5 µM was 100%.

Turning to `Cc1cn2nc([C@@H]3CCCCN3C(=O)c3ccnn3CC(F)(F)F)cc2nc1N1C[C@@H](C#N)[C@@H](O)C1` [Compound 189], the inhibition at 0.5 µM is 89%.

As to `Cc1cn2nc([C@@H]3CCCCN3C(=O)c3c(Cl)cnn3C(C)C)cc2nc1N1C[C@@H](C#N)[C@@H](O)C1` [Compound 190], the inhibition at 0.5 µM was 100%.

In the case of `Cc1cn2nc([C@@H]3CCCCN3C(=O)c3cc(Cl)ccc3NS(C)(=O)=O)cc2nc1N1C[C@@H](C#N)[C@@H](OP(=O)(O)O)C1` [Compound 192], the inhibition at 0.5 µM was 100%.

Turning to `Cc1ccnc(C(=O)N2CCCC[C@H]2c2cc3nc(N4CC(C#N)[C@@H](O)C4)c(C)cn3n2)c1` (stereo partly drawn) [Compound 196], the inhibition at 0.5 µM was 96%.

`Cc1ccc(N2CCCS2(=O)=O)c(C(=O)N2CCCC[C@H]2c2cc3nc(N4C[C@@H](C#N)[C@@H](O)C4)c(C)cn3n2)c1` [Compound 197]: the inhibition at 0.5 µM is 100%.

Take `Cc1cn2nc([C@@H]3CCCCN3C(=O)c3cc(Br)ccc3NS(C)(=O)=O)cc2nc1N1C[C@@H](C#N)[C@@H](O)C1` [Compound 199]: the inhibition at 0.5 µM is 100%.

As for `COc1ccc(Cl)cc1C(=O)N1CCCC[C@H]1c1cc2nc(N3C[C@@H](C#N)[C@@H](O)C3)c(C)cn2n1` [Compound 201], the inhibition at 0.5 µM is 100%.

Consider `Cc1ccc(Cl)cc1C(=O)N1CCCC[C@H]1c1cc2nc(N3C[C@@H](C#N)[C@@H](O)C3)c(C)cn2n1` [Compound 202], for which the inhibition at 0.5 µM is 100%.

In the case of `CC(=O)Nc1ccc(C)cc1C(=O)N1CCCC[C@H]1c1cc2nc(N3CC(O)C(C#N)C3)c(C)cn2n1` (stereo partly drawn) [Compound 203], the inhibition at 0.5 µM is 100%.

On to `Cc1cn2nc([C@@H]3CCCCN3C(=O)c3cc(Cl)ccc3NS(C)(=O)=O)cc2nc1N1C[C@@H](C#N)[C@@H](OC(=O)[C@H](N)C(C)C)C1` [Compound 204], for which the inhibition at 0.5 µM was 100%.

Turning to `Cc1cn2nc([C@@H]3CCCCN3C(=O)c3cc(Cl)ccc3NS(C)(=O)=O)cc2nc1N1C[C@@H](C#N)[C@@H](OC(=O)[C@H]2CCCN2)C1` [Compound 205], the inhibition at 0.5 µM is 100%.

On to `Cc1cn2nc([C@@H]3CCCCN3C(=O)c3cc(Cl)ccc3NS(C)(=O)=O)cc2nc1N1C[C@@H](C#N)[C@@H](OC(=O)CN)C1` [Compound 206], for which the inhibition at 0.5 µM is 100%.

For the compound `Cc1cn2nc([C@@H]3CCCCN3C(=O)c3cc(Cl)ccc3NS(C)(=O)=O)cc2nc1N1C[C@@H](C#N)[C@@H](OC(=O)CCC(=O)O)C1` [Compound 207], the inhibition at 0.5 µM was 100%.

Turning to `Cc1cn2nc([C@@H]3CCCCN3C(=O)c3cc(Cl)ccc3NS(C)(=O)=O)cc2nc1N1C[C@@H](C#N)[C@@H](OC(=O)c2cccnc2)C1` [Compound 208], the inhibition at 0.5 µM is 100%.

Still in this experiment, the particulars now being: human respiratory syncytial virus, HEp-2, read-out: Percent inhibition at 0.5 μM.
As to `Cc1ccc(NS(C)(=O)=O)c(C(=O)N2CCCC[C@H]2c2cc3nc(N4C[C@@H](C#N)[C@@H](O)C4)c(C)cn3n2)c1` [Compound 200], the inhibition at 0.5 µM is 100%.

Values taken from patent US8946238B2, “Pyrazolo[1,5-A]pyrimidines as antiviral agents” (Gilead Sciences, Inc., priority 2011, dated 2015).
